This is an account of results in patent US5332754A, “Naphthyloxazolidone derivatives” (Tanabe Seiyaku Co., Ltd., priority 1989, dated 1994).

The subject of one series is cerebral MAO-B. As to the kind of experiment: Inhibitory effect against cerebral MAO-B activity in mouse (oral administration). To be noted: 30 mg/kg oral, brain excised 45 minutes after administration, benzylamine substrate. It counts as in vivo. The method, then:
(§1) Inhibitory effect against cerebral MAO-A and MAO-B activity in mouse.
(§2) A test compound (30 mg/kg) suspended in 0.5% aqueous sodium carboxymethylcellulose (CMC-Na) solution was administered orally to a group of 3 mice. The brain was excised 45 minutes after the administration. A control group was administered with the 0.5% aqueous CMC-Na solution alone.
(§3) The brain tissue was homogenized in 9 volumes of ice-cold distilled water and the homogenate was used as enzyme. MAO-A activity was estimated in the same manner as described in Experiment 1, whereas MAO-B activity was estimated in terms of the amount of benzaldehyde formed from benzylamine according to the method as described in "The Journal of Laboratory and Clinical Medicine, vol.
Inhibitory rate of the test compound against the MAO-B activity are calculated according to the following equation. [formula] BA(T): the amount of benzaldehyde in the medicated group BA(C): the amount of benzaldehyde in the non-medicated control group

For the next series, the target named is T1, MAO-A (Rattus norvegicus, UniProt P21396).
T1 construct: mitochondorial fraction obtained from cerebral tissue of rats; from tissue; host or cells: rat cerebral tissue, mitochondrial fraction
T1 sequence (P21396 1-526): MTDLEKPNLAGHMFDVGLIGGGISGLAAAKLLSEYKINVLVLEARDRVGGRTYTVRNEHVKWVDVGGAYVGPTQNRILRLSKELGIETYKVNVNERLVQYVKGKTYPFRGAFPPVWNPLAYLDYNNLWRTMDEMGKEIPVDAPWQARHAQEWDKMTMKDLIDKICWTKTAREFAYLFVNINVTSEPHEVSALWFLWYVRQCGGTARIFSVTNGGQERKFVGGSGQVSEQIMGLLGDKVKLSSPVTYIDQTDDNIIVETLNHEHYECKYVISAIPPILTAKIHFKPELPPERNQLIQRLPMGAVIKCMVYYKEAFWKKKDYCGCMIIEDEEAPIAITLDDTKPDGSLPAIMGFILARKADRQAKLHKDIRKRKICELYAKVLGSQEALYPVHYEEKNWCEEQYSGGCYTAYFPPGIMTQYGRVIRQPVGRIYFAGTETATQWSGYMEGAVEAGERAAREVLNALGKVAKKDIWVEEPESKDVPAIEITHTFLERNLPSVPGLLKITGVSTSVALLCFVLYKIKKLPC
As to the kind of experiment: Inhibitory effect against MAO-A activity of cerebral mitochondrial fraction from rat (in vitro). To be noted: 10^-7 M test compound, serotonin substrate, read-out: Inhibitory rate (%) against MAO-A activity. It counts as biochemical. The method, then:
Inhibitory effect against MAO-A activity of cerebral mitochondorian fraction from rat (in vitro)
(§4) A suspension (7mg protein/ml) of mitochondorial fraction obtained from cerebral tissue of rats in a conventional manner was used as a sample of enzyme, and serotonin was used as the substrate. of MAO-A. The MAO-A activity was estimated in terms of the amount of ammonia produced from serotonin by the enzymatic reaction.
Inhibitory rate of the test compounds (10^-7 M) against the MAO-A activity was calculated according to the following equation. [formula] NH3 (T): the amount of NH3 in test tube (addtion of test compound) NH3 (C): the amount of NH3 in control tube (no addition of test compound)

A further series relates to cerebral MAO-A. As to the kind of experiment: Inhibitory effect against cerebral MAO-A activity in mouse (oral administration). In kind it is in vivo. The settings on record: 30 mg/kg oral, brain excised 45 minutes after administration, serotonin substrate. The method, then:
as §4, §1, §2, §3

The next series relates to mice. As to the kind of experiment: Acute oral toxicity in mice. It counts as in vivo, mouse. To be noted: 2g/kg orally, 2 week-observation period. From the text: The naphthyloxazolidone derivative (I)or a pharmaceutically acceptable salt thereof has excellent reversible and selective MAO-A inhibitory activity. Accordingly, the compound (I) or a pharmaceutically acceptable salt thereof is useful as a therapeutic or prophylactic agent for depressive conditions such as depression, senile depression, abulia, axiety, insomnia, anorexia and the like in warm-blood animals including human beings. […] Moreover, the compound (I) or a pharmaceutically acceptable salt thereof is low in toxicity and have high safety as a pharmaceuticals. For example, when 3-(6-cyanoethoxy-2-naphthyl)-5-methoxymethyl-2-oxazolidone was administered orally to mice at a dose of 2g/kg, no mice died during 2 week-observation period.

Take `COCC1CN(c2ccc3cc(OCC4CC4)ccc3c2)C(=O)O1` (centres unmarked): the “Inhibitory rate (%) MAO-B” value with cerebral MAO-B was -4.5 ± 5.9%. For the same compound, the inhibition at 0.1 µM on MAO-A worked out at 93.5%. In addition, the “Inhibitory rate (%) MAO-A” value in the series with cerebral MAO-A came to 71.4 ± 4.3%.

In the case of `COCC1CN(c2ccc3ccccc3c2)C(=O)O1` (centres unmarked) [H, 5-methoxymethyl-3-(2-naphthyl)-2-oxazolidone], the inhibition at 0.1 µM at MAO-A stood at 78.4%.

With `COCC1CN(c2ccc3cc(OCCC#N)ccc3c2)C(=O)O1` (centres unmarked) [O(CH2)2 CN, 3-(6-cyanoethoxy-2-naphthyl)-5-methoxymethyl-2-oxazolidone], the “Inhibitory rate (%) MAO-B” value with cerebral MAO-B was -1.0 ± 2.3%. Moreover, in the series with mice, the mortality entry is reported as “no mice died”. In addition, at MAO-A, the inhibition at 0.1 µM came out at 98.1%. Further, in the series on cerebral MAO-A, the “Inhibitory rate (%) MAO-A” value is reported as 109.2 ± 3.5%.

Regarding `COCC1CN(c2ccc3cc(OCCCC#N)ccc3c2)C(=O)O1` (centres unmarked) [O(CH2)3 CN], the “Inhibitory rate (%) MAO-B” value in the series on cerebral MAO-B is -1.9 ± 4.8%. Moreover, the inhibition at 0.1 µM on MAO-A stood at 95.5%. Moreover, the “Inhibitory rate (%) MAO-A” value in the series with cerebral MAO-A stood at 99.8 ± 16.1%.

Regarding `COCC1CN(c2ccc3cc(OCCCO)ccc3c2)C(=O)O1` (centres unmarked) [O(CH2)3 OH], the “Inhibitory rate (%) MAO-B” value with cerebral MAO-B was 1.0 ± 0.8%. In addition, the inhibition at 0.1 µM at MAO-A was found to be 91.7%. In addition, in the series with cerebral MAO-A, the “Inhibitory rate (%) MAO-A” value was found to be 57.1 ± 4.3%.

For the compound `C=CCOc1ccc2cc(N3CC(COC)OC3=O)ccc2c1` (centres unmarked) [OCH2 CHCH2], the inhibition at 0.1 µM at MAO-A was 96.8%.

Consider `COCC1CN(c2ccc3cc(OC(C)C)ccc3c2)C(=O)O1` (centres unmarked) [OCH(CH3)2], for which the “Inhibitory rate (%) MAO-B” value with cerebral MAO-B worked out at 3.6 ± 5.3%. The inhibition at 0.1 µM at MAO-A was 98.8%. The “Inhibitory rate (%) MAO-A” value in the series on cerebral MAO-A came to 86.8 ± 5.4%.

`COCC1CN(c2ccc3cc(OC(C)=O)ccc3c2)C(=O)O1` (centres unmarked) [OCOCH3, 3-(6-acetyloxy-2-naphthyl)-5-methoxymethyl-2-oxazolidone]: the “Inhibitory rate (%) MAO-B” value with cerebral MAO-B was -3.1 ± 1.8%. Besides, on MAO-A, the inhibition at 0.1 µM was 76.6%. The “Inhibitory rate (%) MAO-A” value in the series on cerebral MAO-A is recorded as 56.4 ± 7.4%.

In the case of `C#CCN(C)Cc1ccccc1` [pargyline, reference compound], the “Inhibitory rate (%) MAO-B” value in the series on cerebral MAO-B is on record as 98.3 ± 5.9%. Moreover, the “Inhibitory rate (%) MAO-A” value in the series on cerebral MAO-A was determined as 42.0 ± 2.4%.
